Test results published in the NIST ThermoML archive (doi:10.1021/je900596d).

Details: Fluid (supercritical or subcritical phases), Vibrating tube method

FC(F)=C(F)C(F)(F)F [hexafluoropropene]
mass density [kg/m3]
Details	343.26 K	348.12 K
3.1 kPa	–	0.11
3.7 kPa	–	0.12
4.8 kPa	–	0.23
5.4 kPa	–	0.18
6.4 kPa	–	0.27
7.4 kPa	–	0.23
8.3 kPa	–	0.31
8.9 kPa	–	0.35
9.9 kPa	–	0.43
11.5 kPa	–	0.57
15.2 kPa	–	0.72
17 kPa	–	0.83
18.8 kPa	–	0.9
22.4 kPa	–	1.11
24.2 kPa	–	1.25
27.7 kPa	–	1.44
29.5 kPa	–	1.44
31.2 kPa	–	1.52
34.9 kPa	–	1.74
36.7 kPa	–	1.87
38.3 kPa	–	1.89
41 kPa	–	2.08
43.9 kPa	–	2.27
46.5 kPa	–	2.39
49.3 kPa	–	2.49
55.8 kPa	–	2.86
59.3 kPa	–	3.01
62.6 kPa	–	3.24
65.9 kPa	–	3.31
72.5 kPa	–	3.77
75.7 kPa	–	3.95
78.9 kPa	–	4.06
82.3 kPa	–	4.24
89 kPa	–	4.57
92.4 kPa	–	4.78
95.9 kPa	–	4.89
99.3 kPa	–	5.1
102.8 kPa	–	5.38
108.9 kPa	–	5.66
121.1 kPa	–	6.31
127.3 kPa	–	6.62
139.4 kPa	–	7.29
145.5 kPa	–	7.59
151.6 kPa	–	7.92
157.7 kPa	–	8.3
168.6 kPa	–	8.79
172.3 kPa	–	9.11
176 kPa	–	9.23
186.9 kPa	–	9.89
190.6 kPa	–	10.07
194.2 kPa	–	10.28
201.5 kPa	–	10.61
208.9 kPa	–	10.99
216.2 kPa	–	11.48
230.6 kPa	–	12.26
237.9 kPa	–	12.55
245.2 kPa	–	13.05
252.4 kPa	–	13.5
266.8 kPa	–	14.29
274 kPa	–	14.64
281 kPa	–	15
295.2 kPa	–	15.84
303.3 kPa	–	16.23
310.5 kPa	–	16.69
317.5 kPa	–	17.06
324.5 kPa	–	17.51
331.5 kPa	–	17.9
338.4 kPa	–	18.25
352.2 kPa	–	19.05
359.1 kPa	–	19.45
366 kPa	–	19.85
379.7 kPa	–	20.59
386.5 kPa	–	20.98
393.2 kPa	–	21.4
399.9 kPa	–	21.73
413.4 kPa	–	22.49
420.1 kPa	–	22.92
426.9 kPa	–	23.28
433.5 kPa	–	23.69
443.2 kPa	–	24.38
470.9 kPa	–	25.92
484.7 kPa	–	26.77
498.3 kPa	–	27.51
515 kPa	–	28.53
528 kPa	–	29.29
541 kPa	–	30.15
566.4 kPa	–	31.68
575.8 kPa	33.42	–
579.2 kPa	–	32.43
590.5 kPa	34.28	–
591.2 kPa	–	33.18
603.3 kPa	–	33.86
604.4 kPa	35.15	–
617.9 kPa	35.97	–
631.9 kPa	36.94	–
638.4 kPa	–	36.05
646.4 kPa	37.76	–
655.4 kPa	–	37.08
660.3 kPa	38.68	–
672.1 kPa	–	38.15
674.2 kPa	39.57	–
688.2 kPa	40.47	–
688.5 kPa	–	39.21
701.9 kPa	41.42	–
704.5 kPa	–	40.22
715.6 kPa	42.26	–
720.3 kPa	–	41.24
729.6 kPa	43.14	–
735.8 kPa	–	42.16
743.3 kPa	44.1	–
756.9 kPa	44.99	–
765.5 kPa	–	44.05
770.5 kPa	45.84	–
783.7 kPa	46.78	–
794.2 kPa	–	45.95
797.6 kPa	47.61	–
808 kPa	–	46.91
810.7 kPa	48.57	–
823.9 kPa	49.41	–
827.5 kPa	–	48.2
844.7 kPa	–	49.34
850.2 kPa	51.23	–
863 kPa	52.13	–
863.4 kPa	–	50.7
876.3 kPa	53.04	–
889.1 kPa	53.92	–
890.4 kPa	–	52.34
902.2 kPa	54.71	–
902.7 kPa	–	53.25
914.9 kPa	55.73	–
915.6 kPa	–	54.2
928.7 kPa	56.6	55.05
941.5 kPa	57.53	–
945.4 kPa	–	56.14
954 kPa	58.46	–
967.8 kPa	59.43	–
972.6 kPa	–	58.01
981 kPa	60.4	–
985.8 kPa	–	58.92
994.4 kPa	61.4	–
1005.6 kPa	–	60.36
1008.2 kPa	62.31	–
1020.2 kPa	63.29	–
1023.4 kPa	–	61.55
1034.9 kPa	64.41	–
1040.8 kPa	–	62.84
1046.9 kPa	65.28	–
1057.8 kPa	–	64.05
1060.3 kPa	66.22	–
1073.4 kPa	67.25	–
1074 kPa	–	65.2
1087.5 kPa	68.21	–
1089.6 kPa	–	66.39
1100.8 kPa	69.23	–
1108 kPa	–	67.73
1115.6 kPa	70.43	–
1129.3 kPa	71.49	–
1138.6 kPa	–	69.96
1141.9 kPa	72.46	–
1150.7 kPa	–	70.83
1155.2 kPa	73.52	–
1168.1 kPa	–	72.19
1170.3 kPa	74.72	–
1184.8 kPa	–	73.38
1185.3 kPa	75.94	–
1200.7 kPa	77.06	–
1201.8 kPa	–	74.83
1215.9 kPa	78.32	–
1219.5 kPa	–	76.17
1231.1 kPa	79.48	–
1231.5 kPa	–	77.05
1246.2 kPa	80.8	–
1248.8 kPa	–	78.38
1260.9 kPa	82.02	–
1265.1 kPa	–	79.72
1275.9 kPa	83.2	–
1280.3 kPa	–	80.92
1290.3 kPa	84.46	–
1297.6 kPa	–	82.21
1305.2 kPa	85.7	–
1313.7 kPa	–	83.6
1318.4 kPa	86.81	–
1330.4 kPa	–	84.96
1332.6 kPa	88.06	–
1346.3 kPa	–	86.2
1347.2 kPa	89.34	–
1361.6 kPa	90.6	–
1362.7 kPa	–	87.68
1375.5 kPa	91.86	–
1378.7 kPa	–	88.93
1389.9 kPa	93.09	–
1395.3 kPa	–	90.32
1403.7 kPa	94.34	–
1410.5 kPa	–	91.58
1417.7 kPa	95.63	–
1426.3 kPa	–	92.94
1431.1 kPa	96.88	–
1442.6 kPa	–	94.4
1445 kPa	98.11	–
1458.7 kPa	99.32	–
1460.3 kPa	–	95.93
1471.8 kPa	100.55	–
1473.3 kPa	–	97.06
1485.2 kPa	101.78	–
1487.3 kPa	–	98.32
1498.3 kPa	103.12	–
1511.1 kPa	104.29	–
1511.6 kPa	–	100.57
1540.1 kPa	–	103.11
1562.1 kPa	109.24	–
1566 kPa	–	105.5
1588.6 kPa	111.94	–
1592.2 kPa	–	107.78
1614.7 kPa	114.55	–
1616.1 kPa	–	110.1
1639.3 kPa	–	112.32
1641.2 kPa	117.35	–
1669.2 kPa	120.33	–
1683.8 kPa	–	116.62
1691 kPa	122.68	–
1708.4 kPa	–	119.29
1719.3 kPa	125.81	–
1732.6 kPa	–	121.75
1745.8 kPa	128.82	–
1756.5 kPa	–	124.29
1773.3 kPa	132.05	–
1800.9 kPa	135.31	–
1827.4 kPa	138.58	–
1854.7 kPa	141.97	–
1880.9 kPa	145.46	–
1908.3 kPa	149.04	–
1933.9 kPa	152.57	–
1960.3 kPa	156.37	–
1986.1 kPa	160.18	–
2014.5 kPa	164.44	–
2041.7 kPa	168.76	–
2069.4 kPa	173.21	–
2096.3 kPa	177.82	–
2121.6 kPa	182.61	–
2139 kPa	185.89	–
2156.2 kPa	189.13	–
2172.4 kPa	192.4	–
2188.6 kPa	195.87	–
2204.8 kPa	199.3	–
2221.6 kPa	203.18	–
2237.7 kPa	208.04	–
2240 kPa	209.71	–
2240.5 kPa	210.31	–
2241 kPa	210.66	–
2241.7 kPa	211.34	–
2242.3 kPa	212.06	–
2242.9 kPa	213.01	–
2243.5 kPa	214.62	–
2243.9 kPa	215.07	–
2244.6 kPa	216.87	–
2245.3 kPa	218.74	–
2245.7 kPa	219.44	–
2246.2 kPa	220.03	–
2246.7 kPa	220.73	–
2247.1 kPa	221.76	–
2247.5 kPa	223.54	–
2248 kPa	224.32	–
2248.4 kPa	225.47	–
2248.8 kPa	227.07	–
2249.3 kPa	230.72	–
2249.7 kPa	239.12	–
